# Source: PMC10893631, “Receptor-based pharmacophore modeling, molecular docking, synthesis and biological evaluation of novel VEGFR-2, FGFR-1, and BRAF multi-kinase inhibitors” (BMC Chemistry, 2024)
# Columns and labels:
# Experiment in all cases: NCI SRB growth inhibition (single dose 10 µM / five-dose)
# Assay type in all cases: cell-based, human
# [1] = test system: A498; conditions: Homo sapiens; for inhibition at 10 µM: A498 (Renal cancer), read-out: GI%; for GI50: A498, Renal cancer, five-dose
# Procedure, shortened: (§1)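 TCA fixation ends the assay for adherent lines; unbound SRB is rinsed off five times with 1% acetic acid. Drug is added from a DMSO concentrate at 400× the maximum final concentration, made up to 2× in gentamicin-containing medium, then halved on addition to wells.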
# [2] = test system: A549/ATCC; conditions: Homo sapiens; for inhibition at 10 µM: A549/ATCC (Non-small cell lung cancer), read-out: GI%; for GI50: A549/ATCC, Non-small cell lung cancer, five-dose
# Procedure, shortened: as §1
# [3] = test system: ACHN; conditions: Homo sapiens; for inhibition at 10 µM: ACHN (Renal cancer), read-out: GI%; for GI50: ACHN, Renal cancer, five-dose
# Procedure, shortened: as §1
# [4] = test system: BT-549; conditions: Homo sapiens; for inhibition at 10 µM: BT-549 (Breast cancer), read-out: GI%; for GI50: BT-549, Breast cancer, five-dose
# Procedure, shortened: as §1
# [5] = test system: CAKI-1; conditions: Homo sapiens; for inhibition at 10 µM: CAKI-1 (Renal cancer), read-out: GI%; for GI50: CAKI-1, Renal cancer, five-dose
# Procedure, shortened: as §1
# [6] = test system: CCRF-CEM; conditions: Homo sapiens; for inhibition at 10 µM: CCRF-CEM (Leukemia), read-out: GI%; for GI50: CCRF-CEM, Leukemia, five-dose
# Procedure, shortened: as §1
# [7] = test system: HCC-2998; conditions: Homo sapiens; for inhibition at 10 µM: HCC-2998 (Colon cancer), read-out: GI%; for GI50: HCC-2998, Colon cancer, five-dose
# Procedure, shortened: as §1
# [8] = test system: HCT-15; conditions: Homo sapiens; for inhibition at 10 µM: HCT-15 (Colon cancer), read-out: GI%; for GI50: HCT-15, Colon cancer, five-dose
# Procedure, shortened: as §1
# [9] = test system: HL-60(TB); conditions: Homo sapiens; for inhibition at 10 µM: HL-60(TB) (Leukemia), read-out: GI%; for GI50: HL-60(TB), Leukemia, five-dose
# Procedure, shortened: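 Seeding varied with cell doubling time (5000–40,000 cells/well). Dilutions were 10-fold or ½ log, five levels in total. Sulforhodamine B staining (0.4% w/v, 10 min, room temperature) of TCA-fixed cells measured growth.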
# [10] = test system: HOP-62; conditions: Homo sapiens; for GI50: HOP-62, Non-small cell lung cancer, five-dose
# Procedure, shortened: as §1
# [11] = test system: HS 578 T; conditions: Homo sapiens; for inhibition at 10 µM: HS 578 T (Breast cancer), read-out: GI%; for GI50: HS 578 T, Breast cancer, five-dose
# Procedure, shortened: as §1
# [12] = test system: HT29; conditions: Homo sapiens, HT-29; for inhibition at 10 µM: HT29 (Colon cancer), read-out: GI%; for GI50: HT29, Colon cancer, five-dose
# Procedure, shortened: as §1
# [13] = test system: LOX IMVI; conditions: Homo sapiens; for inhibition at 10 µM: LOX IMVI (Melanoma), read-out: GI%; for GI50: LOX IMVI, Melanoma, five-dose
# Procedure, shortened: as §1
# [14] = test system: MCF7; conditions: Homo sapiens; for inhibition at 10 µM: MCF7 (Breast cancer), read-out: GI%; for GI50: MCF7, Breast cancer, five-dose
# Procedure, shortened: as §1
# [15] = test system: MDA-MB-231/ATCC; conditions: Homo sapiens; for inhibition at 10 µM: MDA-MB-231/ATCC (Breast cancer), read-out: GI%; for GI50: MDA-MB-231/ATCC, Breast cancer, five-dose
# Procedure, shortened: as §1
# [16] = test system: MOLT-4; conditions: Homo sapiens; for inhibition at 10 µM: MOLT-4 (Leukemia), read-out: GI%; for GI50: MOLT-4, Leukemia, five-dose
# Procedure, shortened: as §1
# [17] = test system: NCI-H23; conditions: Homo sapiens; for inhibition at 10 µM: NCI-H23 (Non-small cell lung cancer), read-out: GI%; for GI50: NCI-H23, Non-small cell lung cancer, five-dose
# Procedure, shortened: as §1
# [18] = test system: NCI-H322M; conditions: Homo sapiens; for inhibition at 10 µM: NCI-H322M (Non-small cell lung cancer), read-out: GI%; for GI50: NCI-H322M, Non-small cell lung cancer, five-dose
# Procedure, shortened: as §1
# [19] = test system: OVCAR-5; conditions: Homo sapiens; for inhibition at 10 µM: OVCAR-5 (Ovarian cancer), read-out: GI%; for GI50: OVCAR-5, Ovarian cancer, five-dose
# Procedure, shortened: as §1
# [20] = test system: OVCAR-8; conditions: Homo sapiens; for inhibition at 10 µM: OVCAR-8 (Ovarian cancer), read-out: GI%; for GI50: OVCAR-8, Ovarian cancer, five-dose
# Procedure, shortened: as §1
# [21] = test system: PC-3; conditions: Homo sapiens; for inhibition at 10 µM: PC-3 (Prostate cancer), read-out: GI%
# Procedure, shortened: as §1
# [22] = test system: SF-268; conditions: Homo sapiens; for inhibition at 10 µM: SF-268 (CNS cancer), read-out: GI%; for GI50: SF-268, CNS cancer, five-dose
# Procedure, shortened: as §1
# [23] = test system: SK-MEL-2; conditions: Homo sapiens; for inhibition at 10 µM: SK-MEL-2 (Melanoma), read-out: GI%; for GI50: SK-MEL-2, Melanoma, five-dose
# Procedure, shortened: as §1
# [24] = test system: SNB-19; conditions: Homo sapiens; for inhibition at 10 µM: SNB-19 (CNS cancer), read-out: GI%; for GI50: SNB-19, CNS cancer, five-dose
# Procedure, shortened: as §1
# [25] = test system: SR; conditions: Homo sapiens; for inhibition at 10 µM: SR (Leukemia), read-out: GI%; for GI50: SR, Leukemia, five-dose
# Procedure, shortened: as §1
# [26] = test system: UACC-257; conditions: Homo sapiens; for inhibition at 10 µM: UACC-257 (Melanoma), read-out: GI%; for GI50: UACC-257, Melanoma, five-dose
# Procedure, shortened: as §1
compound,measurement,setting,value
"COc1ccc(-c2nc3cc(C(=O)NN=Cc4cccc(OC)c4)ccc3[nH]2)cc1 [8j, N'-(3-Methoxybenzylidene)-2-(4-methoxyphenyl)-1H-benzo[d]imidazole-5-carbohydrazide]",inhibition at 10 µM,[1],< 5%
same,GI50,[1],21500 nM
same,inhibition at 10 µM,[2],> 100%
same,GI50,[2],3050 nM
same,inhibition at 10 µM,[3],> 100%
same,GI50,[3],4250 nM
same,inhibition at 10 µM,[4],29.8%
same,GI50,[4],5470 nM
same,inhibition at 10 µM,[5],85.3%
same,GI50,[5],2810 nM
same,inhibition at 10 µM,[6],35%
same,GI50,[6],7910 nM
same,inhibition at 10 µM,[7],88.5%
same,GI50,[7],3520 nM
same,inhibition at 10 µM,[8],79.2%
same,GI50,[8],3920 nM
same,inhibition at 10 µM,[9],30.4%
same,GI50,[9],36500 nM
same,inhibition at 10 µM,"[10]; HOP-62 (Non-small cell lung cancer), 10 µM, read-out: GI%",> 100%
same,GI50,[10],2700 nM
same,inhibition at 10 µM,[11],> 100%
same,GI50,[11],1900 nM
same,inhibition at 10 µM,[12],> 100%
same,GI50,[12],2800 nM
same,inhibition at 10 µM,[13],> 100%
same,GI50,[13],1980 nM
same,inhibition at 10 µM,[14],> 100%
same,GI50,[14],2500 nM
same,inhibition at 10 µM,[15],> 100%
same,GI50,[15],2430 nM
same,inhibition at 10 µM,[16],59.4%
same,GI50,[16],22600 nM
same,inhibition at 10 µM,[17],> 100%
same,GI50,[17],2950 nM
same,inhibition at 10 µM,[18],> 100%
same,GI50,[18],3030 nM
same,inhibition at 10 µM,[19],91.2%
same,GI50,[19],4690 nM
same,inhibition at 10 µM,[20],> 100%
same,GI50,[20],1920 nM
same,inhibition at 10 µM,[21],> 100%
same,inhibition at 10 µM,[22],84.7%
same,GI50,[22],3280 nM
same,inhibition at 10 µM,[23],81%
same,GI50,[23],10600 nM
same,inhibition at 10 µM,[24],> 100%
same,GI50,[24],3180 nM
same,inhibition at 10 µM,[25],92.7%
same,GI50,[25],10600 nM
same,inhibition at 10 µM,[26],57.7%
same,GI50,[26],11000 nM
"O=C(NN=Cc1ccccc1O)c1ccc2[nH]c(-c3ccc(Cl)cc3)nc2c1 [8o, 2-(4-Chlorophenyl)-N'-(2-hydroxybenzylidene)-1H-benzo[d]imidazole-5-carbohydrazide]",inhibition at 10 µM,[1],53.9%
same,GI50,[1],8100 nM
same,inhibition at 10 µM,[2],87%
same,GI50,[2],1800 nM
same,inhibition at 10 µM,[3],94.2%
same,GI50,[3],810 nM
same,inhibition at 10 µM,[4],60.6%
same,GI50,[4],3570 nM
same,inhibition at 10 µM,[5],> 100%
same,GI50,[5],220 nM
same,inhibition at 10 µM,[6],> 100%
same,GI50,[6],> 38800 nM
same,inhibition at 10 µM,[7],78%
same,GI50,[7],1380 nM
same,inhibition at 10 µM,[8],> 100%
same,GI50,[8],200 nM
same,inhibition at 10 µM,[9],47.1%
same,GI50,[9],310 nM
same,GI50,[10],840 nM
same,inhibition at 10 µM,[11],> 100%
same,GI50,[11],260 nM
same,inhibition at 10 µM,[12],> 100%
same,GI50,[12],1080 nM
same,inhibition at 10 µM,[13],> 100%
same,GI50,[13],430 nM
same,inhibition at 10 µM,[14],93.7%
same,GI50,[14],160 nM
same,inhibition at 10 µM,[15],> 100%
same,GI50,[15],1410 nM
same,inhibition at 10 µM,[16],60.8%
same,GI50,[16],280 nM
same,inhibition at 10 µM,[17],> 100%
same,GI50,[17],310 nM
same,inhibition at 10 µM,[18],70.2%
same,GI50,[18],1380 nM
same,inhibition at 10 µM,[19],55.9%
same,GI50,[19],2120 nM
same,inhibition at 10 µM,[20],> 100%
same,GI50,[20],980 nM
same,inhibition at 10 µM,[21],78.5%
same,GI50,"[21]; PC-3, Prostate cancer, five-dose",> 38800 nM
same,inhibition at 10 µM,[22],> 100%
same,GI50,[22],840 nM
same,inhibition at 10 µM,[23],> 100%
same,GI50,[23],4600 nM
same,inhibition at 10 µM,[24],> 100%
same,GI50,[24],1120 nM
same,inhibition at 10 µM,[25],75.2%
same,GI50,[25],120 nM
same,inhibition at 10 µM,[26],42.4%
same,GI50,[26],7350 nM
